Relative viability data for 1 cell line are collected here from the supplement of paper PMC10307832.

Assay in all cases: relative viability (nuclei count vs DMSO), 5 days (fraction); higher = more cells survive
Compound in assay [1]: CN1CCN(CC1)C2=CC(=C(C=C2)NC3=NC=C4C(=N3)N(C5=CC=CC=C5C(=O)N4C)C)OC [XMD8-85] + CCNC(=O)c1noc(-c2cc(C(C)C)c(O)cc2O)c1-c1ccc(CN2CCOCC2)cc1 [Luminespib] (partner 0.01 µM)
Put shortly:
(§1)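 Relative viability is defined as nuclei in treated wells over nuclei in vehicle wells. Duplicate plates were run and medians reported. Lung cancer cell lines in 1536-well plates were dosed by pin tool one day after seeding, with one drug or with a fixed anchor-drug dose plus five library-drug doses (not always all listed) in √10 steps, and nuclei were counted after 5 days.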

Compound in assay [2]: CN1CCN(CC1)C2=CC(=C(C=C2)NC3=NC=C4C(=N3)N(C5=CC=CC=C5C(=O)N4C)C)OC [XMD8-85] + NC(=O)Nc1cc(-c2cccc(F)c2)sc1C(=O)N[C@H]1CCCNC1 [AZD7762] (partner 0.2 µM)
Put shortly:
as §1

Compound in assay [3]: O=C(O)C(Cc1ccccc1[N+](=O)[O-])=NNc1nc(-c2ccc(Cl)c(Cl)c2)cs1 (mixture of isomers) [4EGI-1] + CC(C)C[C@H](NC(=O)[C@H](Cc1ccccc1)NC(=O)c1cnccn1)B(O)O [Bortezomib] (partner 0.002 µM)
Put shortly: as §1

Compound in assay [4]: O=C(O)C(Cc1ccccc1[N+](=O)[O-])=NNc1nc(-c2ccc(Cl)c(Cl)c2)cs1 (mixture of isomers) [4EGI-1] + COc1cccc2cc(-c3nc([C@H]4CC[C@H](C(=O)O)CC4)n4ncnc(N)c34)[nH]c12 [OSI-027] (partner 0.5 µM)
Put shortly:
as §1

As to NCI-H1792, the relative viability was determined as 0.504 in assay [1] (first compound 0.253 µM); 0.371 in assay [1] (first compound 2.53 µM); 0.35 in assay [1] (first compound 8 µM); 0.647 in assay [2] (first compound 0.8 µM); 0.694 in assay [2] (first compound 2.53 µM); 0.574 in assay [2] (first compound 8 µM). Moreover, the relative viability in assay [3] (first compound 0.5 µM) is 0.916; in assay [3] (first compound 1.581 µM), 0.392; in assay [3] (first compound 5 µM), 0.933; in assay [3] (first compound 15.81 µM) it was 0.89; in assay [3] (first compound 50 µM), 0.904; in assay [4] (first compound 0.5 µM) it was 0.886. The relative viability in assay [4] (first compound 1.581 µM) was 0.75; in assay [4] (first compound 5 µM), 0.62; in assay [4] (first compound 15.81 µM), 0.579; in assay [4] (first compound 50 µM), 0.503.
